According to ChEMBL document CHEMBL1201862, “PubChem BioAssay data set” (2004):
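Cells were grown in 96-well plates and exposed to each compound for 48 hours at five concentrations; endpoints were interpolated linearly between bracketing concentrations, or set to the highest concentration if not reached. GI50: concentration for 50% inhibition of growth.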 Calls of active or inactive are those of the source. Cut-off read from the data, not from the text of the source: active = GI50 up to about 1.1 µM and inactive = higher.

Columns and labels:
Assay in all cases: growth of human tumour cells (NCI), 48 h
SN12C = tested on: SN12C
EKVX = tested on: EKVX
COLO 205 = tested on: COLO 205
OVCAR-5 = tested on: OVCAR-5
OVCAR-8 = tested on: OVCAR-8
LOX IMVI = tested on: LOX IMVI
IGROV-1 = tested on: IGROV-1
HCT-15 = tested on: HCT-15
HT-29 = tested on: HT-29
MOLT-4 = tested on: MOLT-4
U-251 = tested on: U-251
UACC-62 = tested on: UACC-62
SW-620 = tested on: SW-620
UACC-257 = tested on: UACC-257
CCRF-CEM = tested on: CCRF-CEM
NCI-H23 = tested on: NCI-H23
SF-268 = tested on: SF-268
SK-MEL-28 = tested on: SK-MEL-28
SK-OV-3 = tested on: SK-OV-3
HCT-116 = tested on: HCT-116

Structure (SMILES) | GI50 (SN12C) | GI50 (EKVX) | GI50 (COLO 205) | GI50 (OVCAR-5) | GI50 (OVCAR-8) | GI50 (LOX IMVI) | GI50 (IGROV-1) | GI50 (HCT-15) [µM] | GI50 (HT-29) | GI50 (MOLT-4) | GI50 (U-251) | GI50 (UACC-62) | GI50 (SW-620) | GI50 (UACC-257) | GI50 (CCRF-CEM) | GI50 (NCI-H23) | GI50 (SF-268) | GI50 (SK-MEL-28) | GI50 (SK-OV-3) | GI50 (HCT-116)
COc1ccc(-c2c3c(nc4nc(SCCc5ccccc5)nc(N)c24)CCCC3)cc1OC | > 100 µM (inactive) | > 100 µM (inactive) | > 100 µM (inactive) | > 100 µM (inactive) | > 100 µM (inactive) | > 100 µM (inactive) | > 100 µM (inactive) | > 100 | > 100 µM (inactive) | > 100 µM (inactive) | > 100 µM (inactive) | > 100 µM (inactive) | > 100 µM (inactive) | > 100 µM (inactive) | > 100 µM (inactive) | > 100 µM (inactive) | > 100 µM (inactive) | > 100 µM (inactive) | > 100 µM (inactive) | > 100 µM (inactive)
O=C(N/N=C/c1ccccc1)c1c(F)c(F)c(F)c(F)c1F | > 100 µM (inactive) | > 100 µM (inactive) | > 100 µM (inactive) | > 100 µM (inactive) | > 100 µM (inactive) | > 100 µM (inactive) | > 100 µM (inactive) | 50.1 | 54.2 µM (inactive) | > 100 µM (inactive) | > 100 µM (inactive) | 33.3 µM (inactive) | 96.8 µM (inactive) | > 100 µM (inactive) | > 100 µM (inactive) | > 100 µM (inactive) | > 100 µM (inactive) | > 100 µM (inactive) | > 100 µM (inactive) | 56 µM (inactive)
C[C@H](O)C(=O)SC[C@H](NC(=O)CC[C@@H](N)C(=O)O)C(=O)NCC(=O)O | > 100 µM (inactive) | > 100 µM (inactive) | > 100 µM (inactive) | > 100 µM (inactive) | > 100 µM (inactive) | > 100 µM (inactive) | > 100 µM (inactive) | > 100 | > 100 µM (inactive) | > 100 µM (inactive) | > 100 µM (inactive) | > 100 µM (inactive) | > 100 µM (inactive) | > 100 µM (inactive) | > 100 µM (inactive) | > 100 µM (inactive) | > 100 µM (inactive) | > 100 µM (inactive) | > 100 µM (inactive) | > 100 µM (inactive)
C/C=C/C1=CC(=O)C(O)C1O (stereo not given) | 23.1 µM (inactive) | 44.6 µM (inactive) | 22 µM (inactive) | 39.7 µM (inactive) | 24.8 µM (inactive) | 16.5 µM (inactive) | 35.6 µM (inactive) | 27.6 | 29.6 µM (inactive) | 28 µM (inactive) | 44.8 µM (inactive) | 26.6 µM (inactive) | 27.2 µM (inactive) | 29.4 µM (inactive) | 22.7 µM (inactive) | 25.9 µM (inactive) | 26.5 µM (inactive) | 30.9 µM (inactive) | 40.7 µM (inactive) | 26.2 µM (inactive)
COc1ccc(/N=C(\C)c2ccncc2)cc1 | > 100 µM (inactive) | > 100 µM (inactive) | > 100 µM (inactive) | 72.8 µM (inactive) | > 100 µM (inactive) | > 100 µM (inactive) | > 100 µM (inactive) | 32.1 | > 100 µM (inactive) | > 100 µM (inactive) | > 100 µM (inactive) | > 100 µM (inactive) | 86.5 µM (inactive) | > 100 µM (inactive) | > 100 µM (inactive) | 89.3 µM (inactive) | 50.6 µM (inactive) | > 100 µM (inactive) | > 100 µM (inactive) | > 100 µM (inactive)
CCCCCCCSc1nc2c(C(=O)OCC)ncn2c2ccccc12 | > 100 µM (inactive) | > 100 µM (inactive) | > 100 µM (inactive) | > 100 µM (inactive) | > 100 µM (inactive) | > 100 µM (inactive) | > 100 µM (inactive) | > 100 | > 100 µM (inactive) | > 100 µM (inactive) | > 100 µM (inactive) | > 100 µM (inactive) | > 100 µM (inactive) | > 100 µM (inactive) | > 100 µM (inactive) | > 100 µM (inactive) | > 100 µM (inactive) | > 100 µM (inactive) | > 100 µM (inactive) | > 100 µM (inactive)
Cc1csc(/N=C(/NCCN2CCOCC2)Nc2nc(C)cs2)n1 | > 100 µM (inactive) | > 87.9 µM (inactive) | > 100 µM (inactive) | > 100 µM (inactive) | > 100 µM (inactive) | > 100 µM (inactive) | > 100 µM (inactive) | > 100 | > 100 µM (inactive) | > 100 µM (inactive) | > 100 µM (inactive) | > 100 µM (inactive) | > 100 µM (inactive) | > 100 µM (inactive) | > 100 µM (inactive) | > 100 µM (inactive) | > 100 µM (inactive) | > 100 µM (inactive) | > 100 µM (inactive) | > 70.1 µM (inactive)
O=C(O)CN(CC(=O)O)C(C(=O)O)c1ccccc1 (stereo not given) | > 100 µM (inactive) | > 100 µM (inactive) | > 100 µM (inactive) | > 100 µM (inactive) | > 100 µM (inactive) | > 100 µM (inactive) | > 100 µM (inactive) | > 100 | > 100 µM (inactive) | > 100 µM (inactive) | > 100 µM (inactive) | > 100 µM (inactive) | > 100 µM (inactive) | > 100 µM (inactive) | > 100 µM (inactive) | > 100 µM (inactive) | > 100 µM (inactive) | > 100 µM (inactive) | > 100 µM (inactive) | > 100 µM (inactive)
COC(=O)C(C/C=C(\C)c1ccc(Cl)cc1)C(C)=O (stereo not given) | 56 µM (inactive) | 54.5 µM (inactive) | 59.8 µM (inactive) | 16.4 µM (inactive) | 52 µM (inactive) | 14.9 µM (inactive) | 53.6 µM (inactive) | 37.5 | 32.3 µM (inactive) | 17.9 µM (inactive) | 26.1 µM (inactive) | 38.5 µM (inactive) | 50.9 µM (inactive) | 23 µM (inactive) | 30.1 µM (inactive) | 35.5 µM (inactive) | 48.3 µM (inactive) | 61.5 µM (inactive) | > 100 µM (inactive) | 41.7 µM (inactive)
Cc1ccc(NC(=O)C(Cc2c[nH]c3ccccc23)NC(=O)Oc2ccccc2)cc1C (stereo not given) | 64.1 µM (inactive) | 59.7 µM (inactive) | 50.4 µM (inactive) | > 100 µM (inactive) | 57.5 µM (inactive) | 47.9 µM (inactive) | 30.5 µM (inactive) | 62.4 | 41.3 µM (inactive) | 57.5 µM (inactive) | 80.2 µM (inactive) | 54.7 µM (inactive) | > 100 µM (inactive) | > 100 µM (inactive) | 35.1 µM (inactive) | > 100 µM (inactive) | 50.7 µM (inactive) | > 100 µM (inactive) | > 100 µM (inactive) | 61.5 µM (inactive)
